Measurements reported in the supplement of paper PMC10307832.

Key:
Test in all cases: relative viability (nuclei count vs DMSO), 5 days (fraction); higher = more cells survive
Adavosertib + Navitoclax = compound: C=CCn1c(=O)c2cnc(Nc3ccc(N4CCN(C)CC4)cc3)nc2n1-c1cccc(C(C)(C)O)n1 [Adavosertib] + CC1(C)CCC(c2ccc(Cl)cc2)=C(CN2CCN(c3ccc(C(=O)NS(=O)(=O)c4ccc(N[C@H](CCN5CCOCC5)CSc5ccccc5)c(S(=O)(=O)C(F)(F)F)c4)cc3)CC2)C1 [Navitoclax] (partner 0.5 µM)
How it was run: (§1)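 Each reported value is a median over duplicate plates. It expresses relative viability: treated-well nuclei count divided by vehicle-well nuclei count. Lung cancer cell lines in 1536-well plates were dosed by pin tool a day after seeding, alone with one drug or with a fixed anchor-drug dose plus five library-drug doses (not always all listed) in √10 steps, and nuclei were counted after 5 days.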

Adavosertib + Linsitinib = compound: C=CCn1c(=O)c2cnc(Nc3ccc(N4CCN(C)CC4)cc3)nc2n1-c1cccc(C(C)(C)O)n1 [Adavosertib] + C[C@]1(O)C[C@@H](c2nc(-c3ccc4ccc(-c5ccccc5)nc4c3)c3c(N)nccn32)C1 [Linsitinib] (partner 1 µM)
How it was run: as §1

Adavosertib + Tozasertib = compound: C=CCn1c(=O)c2cnc(Nc3ccc(N4CCN(C)CC4)cc3)nc2n1-c1cccc(C(C)(C)O)n1 [Adavosertib] + Cc1cc(Nc2cc(N3CCN(C)CC3)nc(Sc3ccc(NC(=O)C4CC4)cc3)n2)n[nH]1 [Tozasertib] (partner 0.1 µM)
How it was run: as §1

Nelarabine + Luminespib = compound: COc1nc(N)nc2c1ncn2[C@@H]1O[C@H](CO)[C@@H](O)[C@@H]1O [Nelarabine] + CCNC(=O)c1noc(-c2cc(C(C)C)c(O)cc2O)c1-c1ccc(CN2CCOCC2)cc1 [Luminespib] (partner 0.01 µM)
How it was run: as §1

EMC-BAC-2
relative viability (Adavosertib + Navitoclax; first compound 0.01 µM): 1.22 | relative viability (Adavosertib + Navitoclax; first compound 0.03162 µM): 1.12 | relative viability (Adavosertib + Navitoclax; first compound 0.1 µM): 1.2 | relative viability (Adavosertib + Navitoclax; first compound 0.3162 µM): 1.19 | relative viability (Adavosertib + Linsitinib; first compound 0.01 µM): 0.823 | relative viability (Adavosertib + Linsitinib; first compound 0.03162 µM): 0.798 | relative viability (Adavosertib + Linsitinib; first compound 0.1 µM): 0.862 | relative viability (Adavosertib + Linsitinib; first compound 0.3162 µM): 0.751 | relative viability (Adavosertib + Tozasertib; first compound 0.01 µM): 0.331 | relative viability (Adavosertib + Tozasertib; first compound 0.03162 µM): 0.318 | relative viability (Adavosertib + Tozasertib; first compound 0.1 µM): 0.261 | relative viability (Adavosertib + Tozasertib; first compound 0.3162 µM): 0.28 | relative viability (Nelarabine + Luminespib; first compound 0.01 µM): 1.41 | relative viability (Nelarabine + Luminespib; first compound 0.03162 µM): 1.16 | relative viability (Nelarabine + Luminespib; first compound 0.1 µM): 1.11 | relative viability (Nelarabine + Luminespib; first compound 0.3162 µM): 1.22 | relative viability (Nelarabine + Luminespib; first compound 1 µM): 1.28
